One compound from publication PMC12191924, “A new naphthalene-based fluorogenic substrate for cytochrome P450 4A11” (Biochemical Journal, 2025) can be followed below.

Molecules are shown by their SMILES.

Series [1] deals with T1, CYP2C8 (Homo sapiens, UniProt P10632).
T1 construct: purchased Gentest (Huntsville, AL), now a part of Discovery Life Sciences lot 81760; host or cells: insect cells, recombinant baculovirus
T1 sequence (P10632 1-490): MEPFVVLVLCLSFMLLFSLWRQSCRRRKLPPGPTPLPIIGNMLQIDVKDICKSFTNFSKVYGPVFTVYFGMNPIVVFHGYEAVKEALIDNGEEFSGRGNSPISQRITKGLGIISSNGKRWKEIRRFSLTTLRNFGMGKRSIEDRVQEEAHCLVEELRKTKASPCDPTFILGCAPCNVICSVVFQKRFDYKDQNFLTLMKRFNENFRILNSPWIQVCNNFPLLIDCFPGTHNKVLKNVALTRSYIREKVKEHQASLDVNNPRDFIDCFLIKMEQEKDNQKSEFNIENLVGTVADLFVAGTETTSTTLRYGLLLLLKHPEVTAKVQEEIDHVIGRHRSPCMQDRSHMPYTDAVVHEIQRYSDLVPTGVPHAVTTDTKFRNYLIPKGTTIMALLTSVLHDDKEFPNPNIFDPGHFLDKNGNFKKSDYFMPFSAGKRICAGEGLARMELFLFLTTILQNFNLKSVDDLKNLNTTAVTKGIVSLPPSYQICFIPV
Kind of series: MONACRA demethylation by recombinant CYP2C8 in Supersomes, high-throughput fluorimetric assay. It counts as biochemical. The method, then:
(§1) Based on these observations, we developed a high-throughput automated assay applicable for studying SSPs of MONACRA metabolism by microsomal P450 enzymes. In this procedure, the incubation mixtures containing an NADPH-generating system and various substrate concentrations are placed in a multiwell plate and preincubated at 30°C in a thermostated shaker. The reaction is started by adding microsomal suspension to the final concentration of 0.3–1 mg/ml of microsomal protein or 0.02–0.1 µM of recombinant P450 enzymes in Supersomes. Following the incubation for 20 min at 30°C, the reaction is quenched by adding trichloroacetic acid (final concentration […]). After supplementing the wells with Na-glycine buffer (pH 10.4, final concentration 2.1 M), the plates are subjected to scanning the fluorescence spectra with excitation at 375 nm. This assay, which is described in detail in Materials and Methods, allows reliable detection of the concentrations of HONACRA as low as 0.1 µM.
(§2) We used the high-throughput activity assay described above to probe MONACRA metabolism by 16 human microsomal P450 enzymes, namely CYP1A2, CYP2A6, CYP2B6, CYP2C8, CYP2C9, CYP2C19, CYP2D6, CYP2E1, CYP2J2, CYP3A4, CYP3A5, CYP4A11, CYP4F2, CYP4F3A, CYP4F3B, and CYP4F12. […]

The target in series [2] is T2, CYP4A11 (Homo sapiens, UniProt Q02928).
T2 sequence (Q02928 5-519): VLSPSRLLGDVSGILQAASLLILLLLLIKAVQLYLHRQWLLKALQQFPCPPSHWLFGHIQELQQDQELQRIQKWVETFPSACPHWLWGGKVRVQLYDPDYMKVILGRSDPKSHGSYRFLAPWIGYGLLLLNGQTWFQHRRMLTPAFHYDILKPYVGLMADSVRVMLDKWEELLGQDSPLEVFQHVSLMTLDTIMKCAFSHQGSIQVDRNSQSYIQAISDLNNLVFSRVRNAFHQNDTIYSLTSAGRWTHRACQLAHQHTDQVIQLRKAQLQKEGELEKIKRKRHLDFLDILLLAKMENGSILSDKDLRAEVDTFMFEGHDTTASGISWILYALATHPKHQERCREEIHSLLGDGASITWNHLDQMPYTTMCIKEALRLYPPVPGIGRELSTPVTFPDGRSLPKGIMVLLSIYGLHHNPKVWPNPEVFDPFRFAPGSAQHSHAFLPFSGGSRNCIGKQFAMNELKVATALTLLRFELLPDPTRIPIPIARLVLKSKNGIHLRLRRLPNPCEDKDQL
Kind of series: MONACRA demethylation by recombinant CYP4A11 in Supersomes, high-throughput fluorimetric assay. It counts as biochemical. Set-up: purchased Gentest (Huntsville, AL), now a part of Discovery Life Sciences lot 2402280; host or cells: insect cells, recombinant baculovirus. The conditions noted are these: Michaelis–Menten fit, ± = confidence interval P=0.05. The method, then: as §1, §2

As for `COc1ccc2cc(C=CC(=O)O)ccc2c1` [MONACRA, 3-(6-methoxynaphthalen-2-yl)acrylic acid], the “rate of MONACRA metabolism by CYP2C8” value in series [1] is given as “negligibly small”. Further, in series [2], the Vmax came out at 66.8 ± 17.5 min⁻¹.
